# Test results published in article PMC6792352, “Limited Chemical Structural Diversity Found to Modulate Thyroid Hormone Receptor in the Tox21 Chemical Library” (Environmental Health Perspectives, 2019).
# Structures can show the parent of a compound that is named as a salt.
# Assay: in vitro
# Conditions: rat, gh3-tre-luc cells, AC50 (uM) modified / 1000
row,SMILES,CC50 at 24 h [µM]
1,CNC(=O)C[C@@H](N)C(=O)N[C@@H](C(=O)N[C@@H]1C(=O)N2[C@@H]1SC(C)(C)[C@@H]2C(=O)O)c1ccc(O)cc1 [Aspoxicillin],> 50
2,CC(C)(C)C(=O)OCOC(=O)[C@@H]1N2C(=O)C[C@H]2S(=O)(=O)C1(C)C [Pivoxil Sulbactam],> 50
3,CCN(CC)CCOC(=O)c1ccc(N)cc1Cl [Chloroprocaine hydrochloride],> 50
4,CN1C(=S)CN=C(c2ccccc2)c2cc(Cl)ccc21 [Sulazepam],> 50
5,CCOCCOC(C)=O [2-Ethoxyethyl acetate],> 90
6,CCCCCCCCCCCC [Dodecane],> 90
7,COC(=O)CCCC(=O)OC [Dimethyl glutarate],> 90
8,COCCC#N [3-Methoxypropionitrile],> 90
9,CCOCCO [2-Ethoxyethanol],> 90
10,CC(Oc1cccc(Cl)c1)C(=O)O (centres unmarked) [Cloprop],> 90
11,CC(C)(C)c1ccc(CN2CCN(C(c3ccccc3)c3ccc(Cl)cc3)CC2)cc1 (centres unmarked) [Buclizine dihydrochloride],32.6
12,CC(C)=CCC/C(C)=C/C(=O)O [Geranic acid],> 90
13,CC(CN1c2ccccc2Sc2ccc(S(=O)(=O)N(C)C)cc21)N(C)C (centres unmarked) [Fonazine],21.4
14,CC(=O)Oc1ccc(C2(c3ccc(OC(C)=O)cc3)C(=O)Nc3ccccc32)cc1 [Oxyphenisatin acetate],> 50
15,CC(C)(C)NC[C@H](O)COc1cccc2c1CCCC2=O [Levobunolol hydrochloride],> 20
16,C=C1[C@H]2CC[C@@H]3[C@H]2C(C)(C)CCC[C@]13C [Longifolene],> 90
17,COC(=O)c1ccccc1CS(=O)(=O)NC(=O)Nc1nc(OC)cc(OC)n1 [Bensulfuron-methyl],> 90
18,CCC(Oc1ccccc1)C(=O)N[C@@H]1C(=O)N2[C@@H]1SC(C)(C)[C@@H]2C(=O)O (some centres unmarked) [Propicillin],> 50
19,CN1C(=O)CC(c2ccccc2)C1=O (centres unmarked) [Phensuximide],> 50
20,Cc1cc(F)ccc1-c1cc(N2CC[C@@H](O)[C@H]2CO)ncc1N(C)C(=O)C(C)(C)c1cc(C(F)(F)F)cc(C(F)(F)F)c1 [PharmaGSID_48513],12.5
21,Cc1ccccc1 [Toluene],> 90
22,O=C(O)C1C(C(=O)O)[C@@]2(Cl)C(Cl)=C(Cl)[C@]1(Cl)C2(Cl)Cl (some centres unmarked) [Chlorendic acid],> 90
23,CC1(C)S[C@@H]2[C@H](NC(=O)Cc3ccccc3)C(=O)N2[C@H]1C(=O)O [Penicillin G potassium],> 50
24,"COC1CCC=CO1 (centres unmarked) [3,4-Dihydro-2-methoxy-2H-pyran]",> 90

row,SMILES,CC50 at 24 h [µM]
1,CCC/C=C/C=O [(2E)-2-Hexenal],> 90
2,CC(=O)Oc1ccc2c3c1O[C@H]1[C@@H](OC(C)=O)C=C[C@H]4[C@@H](C2)N(C)CC[C@@]341 [(-)-Heroin hydrochloride],> 100
3,O=C(OCc1ccccc1)C(=O)OCc1ccccc1 [Dibenzyl oxalate],> 90
4,NC(=O)CCCCC(N)=O [Adipamide],> 90
5,CO/N=C(/C(=O)OC)c1ccccc1COc1ccccc1C [Kresoxim-methyl],> 90
6,"COC(=O)c1cc(C(=O)OC)cc(S(=O)(=O)O)c1 [Sodium 3,5-bis(methoxycarbonyl)benzenesulfonate]",> 90
7,CC(C)COC(=O)/C=C/c1ccccc1 [Isobutyl 3-phenylacrylate],> 90
8,CCC1Nc2cc(Cl)c(S(N)(=O)=O)cc2S(=O)(=O)N1 (centres unmarked) [Ethiazide],> 50
9,O=C1C2CC3CC1CC(O)(C3)C2 [Idramantone],> 50
10,N#Cc1cccnc1 [3-Pyridinecarbonitrile],> 90
11,CC(=O)N[C@H]1[C@H]([C@H](O)[C@H](O)CO)OC(C(=O)O)=C[C@@H]1N=C(N)N [Zanamivir],> 50
12,Cc1ccc(N=Nc2c(O)c(C(=O)O)cc3ccccc23)c(S(=O)(=O)O)c1 [D&C Red No. 7],27.6
13,"C=CCOc1c(Br)cc(Br)cc1Br [1,3,5-Tribromo-2-(prop-2-en-1-yloxy)benzene]",> 90
14,CN1C[C@@H]2c3ccccc3Oc3ccc(Cl)cc3[C@H]2C1 (racemic) [Asenapine],33.1
15,CC(=O)NC1(c2cccc(F)c2)CCN(CC[C@@]2(c3ccc(Cl)c(Cl)c3)CN(c3ccccc3)C(=O)CO2)CC1 [SAR102779],6.31
16,NCCCNCCCN [Norspermidine],57.5
17,Clc1sc(Cl)c(Cl)c1Cl [Tetrachlorothiophene],> 90
18,CC(C)CCCCCOC(=O)CS [Isooctyl 2-mercaptoacetate],> 90
19,Cc1cccc2ccccc12 [1-Methylnaphthalene],> 90
20,Cc1cccc(C)c1NC(=O)CN(CC(=O)O)CC(=O)O [Lidofenin],> 50
21,"CN(C)N=Nc1ccccc1 [1-Phenyl-3,3-dimethyltriazene]",> 90
22,CCOP(=S)(OCC)Oc1cc(C)nc(C(C)C)n1 [Diazinon],> 90
23,O=[N+]([O-])c1cc[n+]([O-])cc1 [4-Nitropyridine-1-oxide],> 90
24,CN(C)CCOC(C)(c1ccccc1)c1ccccn1 (centres unmarked) [Doxylamine succinate],> 50

row,SMILES,CC50 at 24 h [µM]
1,CCCCCCOC(=O)c1ccccc1 [Hexyl benzoate],> 90
2,COc1cc(C(=S)N2CCOCC2)ccc1O [Vanitiolide],> 50
3,CCOc1ccc(N)c([N+](=O)[O-])c1 [4-Ethoxy-2-nitroaniline],> 90
4,Cc1ccc(C(N)=O)cc1N [3-Amino-4-methylbenzamide],> 90
5,O=C1CCCCC1 [Cyclohexanone],> 100
6,O=C1CC2(CCCC2)CC(=O)N1CCNCC1COc2ccccc2O1 (centres unmarked) [Binospirone mesylate],41.9
7,C=CCCC(=O)O [4-Pentenoic acid],> 90
8,CC(C)=CCOC(=O)c1ccccc1 [3-Methyl-2-butenyl benzoate],> 90
9,COc1ccc(-c2ccccc2)cc1NNC(=O)OC(C)C [Bifenazate],87.4
10,"N#CCCC(Br)(C#N)CBr (centres unmarked) [1,2-Dibromo-2,4-dicyanobutane]",16.2
11,Nc1c(Br)cc(Br)cc1CN[C@H]1CC[C@H](O)CC1 [Ambroxolhydrochloride],> 50
12,"Cc1c(N=C=O)cccc1N=C=O [Toluene-2,6-diisocyanate]",> 90
13,CCCCCCCCCC[N+](C)(C)CCCCCCCCCC [Didecyldimethylammonium chloride],10.7
14,Cc1ccc(C(C)NC(=O)[C@@H](NC(=O)OC(C)C)C(C)C)cc1 (some centres unmarked) [Iprovalicarb],> 90
15,CCCCCC1CCC(=O)O1 (centres unmarked) [gamma-Nonanolactone],> 90
16,CCCCCCCCO[C@@H]1O[C@H](CO)[C@@H](O)[C@H](O)[C@H]1O [Octyl beta-D-glucopyranoside],> 90
17,c1ccc2c(c1)CCCC2C1=NCCN1 (centres unmarked) [Tetrahydrozoline hydrochloride],> 50
18,Cc1cccc(Cc2c[nH]cn2)c1C [Detomidine hydrochloride],> 50
19,"Nc1ccc(Cl)cc1Cl [2,4-Dichloroaniline]",> 90
20,ClCCl [Dichloromethane],> 90
21,NS(=O)(=O)c1cc2c(cc1Cl)NCNS2(=O)=O [Hydrochlorothiazide],> 90
22,Nc1ncnc2c1ncn2CCOCP(=O)(O)O [Adefovir],> 50
23,Nc1ccc(NCCO)c([N+](=O)[O-])c1 [HC Red 3],52.7

# Same assay, conditions: rat, gh3-tre-luc cells, AC50 (uM) modified / 1000, Tox21_110001=Tox21_111308; viability, 1 nM T3 present, 24 h
row,SMILES,CC50 at 24 h [µM]
1,c1ccc2c(c1)sc1ccccc12 [Dibenzothiophene],> 50

# Same assay, conditions: rat, gh3-tre-luc cells, AC50 (uM) modified / 1000, Tox21_110001=Tox21_111614; viability, 1 nM T3 present, 24 h
row,SMILES,CC50 at 24 h [µM]
1,OC(O)C(Cl)(Cl)Cl [Chloral hydrate],> 50

# Same assay, conditions: rat, gh3-tre-luc cells, AC50 (uM) modified / 1000, Tox21_110001=Tox21_111804; viability, 1 nM T3 present, 24 h
row,SMILES,CC50 at 24 h [µM]
1,CC(C)(N)Cc1ccc(Cl)cc1 [Chlorphentermine hydrochloride],> 50

# Same assay, conditions: rat, gh3-tre-luc cells, AC50 (uM) modified / 1000, Tox21_110001=Tox21_112495; viability, 1 nM T3 present, 24 h
row,SMILES,CC50 at 24 h [µM]
1,C[C@]12CC[C@H]3[C@@H](CC=C4C[C@@H](O)CC[C@@]43C)[C@@H]1CC[C@@H]2O [Androstenediol],> 50

# Same assay, conditions: rat, gh3-tre-luc cells, AC50 (uM) modified / 1000, Tox21_110001=Tox21_112881; viability, 1 nM T3 present, 24 h
row,SMILES,CC50 at 24 h [µM]
1,NC1(c2ccccc2)CCCCC1 [1-Phenylcyclohexylamine hydrochloride],40.7

# Same assay, conditions: rat, gh3-tre-luc cells, AC50 (uM) modified / 1000, Tox21_110001=Tox21_200110; viability, 1 nM T3 present, 24 h
row,SMILES,CC50 at 24 h [µM]
1,OC(O)C(Cl)(Cl)Cl [Chloral hydrate],> 90

# Same assay, conditions: rat, gh3-tre-luc cells, AC50 (uM) modified / 1000, Tox21_110001=Tox21_200802; viability, 1 nM T3 present, 24 h
row,SMILES,CC50 at 24 h [µM]
1,Nc1ccccc1Cl [2-Chloroaniline],> 90

# Same assay, conditions: rat, gh3-tre-luc cells, AC50 (uM) modified / 1000, Tox21_110001=Tox21_201089; viability, 1 nM T3 present, 24 h
row,SMILES,CC50 at 24 h [µM]
1,ClCc1ccccc1Cl [2-Chlorobenzyl chloride],> 90

# Same assay, conditions: rat, gh3-tre-luc cells, AC50 (uM) modified / 1000, Tox21_110001=Tox21_201196; viability, 1 nM T3 present, 24 h
row,SMILES,CC50 at 24 h [µM]
1,ClC(Cl)=C(Cl)Cl [Tetrachloroethylene],> 90

# Same assay, conditions: rat, gh3-tre-luc cells, AC50 (uM) modified / 1000, Tox21_110001=Tox21_301428; viability, 1 nM T3 present, 24 h
row,SMILES,CC50 at 24 h [µM]
1,COC(=O)C1(O)c2ccccc2-c2ccccc21 [Flurenol-methyl],> 90

# Same assay, conditions: rat, gh3-tre-luc cells, AC50 (uM) modified / 1000, Tox21_110001=Tox21_302103; viability, 1 nM T3 present, 24 h
row,SMILES,CC50 at 24 h [µM]
1,CN(C)c1ccc(C(c2ccccc2)c2ccc(N(C)C)cc2)cc1 [Leucomalachite green],> 90

# Same assay, conditions: rat, gh3-tre-luc cells, AC50 (uM) modified / 1000, Tox21_110001=Tox21_303415; viability, 1 nM T3 present, 24 h
row,SMILES,CC50 at 24 h [µM]
1,c1ccc2c(c1)sc1ccccc12 [Dibenzothiophene],> 90
